What was measured:
[1] = system: human lung cancer cell line A549; assay: cytotoxicity against A549, MTT method; format: cell-based; details: for IC50: Homo sapiens, A549, MTT, 72 h, n = 3; for SI2 (selective index, SI to A549): by comparing the cytotoxicity to the Vero cells
Description: (§1) The anti-Leishmania major activities of the isolated compounds were evaluated using an MTT assay according to an established protocol. In brief, gradient concentrations of sample solutions in dimethyl sulfoxide (DMSO) and L. major (1 × 10^5 parasite/well) in 100 μL of M199 medium were added to a 96-well plate and then incubated for 72 h at 25 °C. An amount of 100 μL MTT solution was then replaced and incubated overnight. The absorbance of formazan solution in DMSO was measured using a microplate reader at 550 nm. Miltefosine was used as a positive control. The human lung cancer cell line A549 was cultured in 10% FCS-supplemented DMEM. The cytotoxicity assay of isolated compounds was also performed in 96-well plates using the MTT method. Various concentrations of samples in DMSO and A549 (5 × 10^3 cells/well) were cultured in a CO2 incubator for 72 h. The medium was then replaced with 100 μL MTT solution and incubated for 1.5 h in the same condition. The viability was calculated by the absorbance of formazan at 550 nm using a microplate reader. The cytotoxicity assay against the Vero cell line was conducted as in A549, which is mentioned above. Doxorubicin was used as a positive control. The concentration gradient of each activity was essentially set as 100, 50, 25, 12.5, and 6.25 μg/mL (Figures S67–S69).

Leishmania major = assay: anti-Leishmania major activity, MTT assay; format: cell-based; details: for IC50: Leishmania major, MTT, 72 h, 25 °C, n = 3, read-out: IC50 L. major; for SI1 (selective index, SI to L. major): by comparing the cytotoxicity to the Vero cells
Description: as §1

Vero cells = assay: cytotoxicity against Vero cell line, MTT method; format: cell-based; details: Chlorocebus sabaeus, 72 h, n = 3
Description: as §1

L. major = system: L. major; set-up: method as in PMID 37375252; details: isolated from the EtOAc layer; cited from earlier work

Molecule	IC50 (Leishmania major) [µM]	IC50 [1] [µM]	SI2 (selective index, SI to A549) [1]	SI1 (selective index, SI to L. major) (Leishmania major)	IC50 (Vero cells) [µM]	cytotoxicity against L. major (L. major)
C=C1C(=O)O[C@H]2C3=C(C)CCC(=O)[C@]3(C)C[C@H](OC(=O)C=C(C)C)[C@@H]12 [Compound 1, Crossostenin A]	0.81 ± 0.26	2.97 ± 0.58	2.0	7.4	5.99 ± 0.76	
C=C1C(=O)O[C@H]2C3=C(C)CCC(=O)[C@]3(C)C[C@H](OC(=O)/C(C)=C/C)[C@@H]12 [Compound 2, Crossostenin B]	0.96 ± 0.17	2.3 ± 0.26	3.4	8.2	7.84 ± 0.61	
COc1cccc2c1C(=O)c1c(O)c3c(c(O)c1C2=O)C[C@@](O)(C(=O)CO)C[C@@H]3O[C@H]1C[C@H](N)[C@H](O)[C@H](C)O1 [doxorubicin, reference compound]		0.45 ± 0.13			3.82 ± 0.79	
crossoseamine A						potent cytotoxicity
crossoseamine B						potent cytotoxicity

Continued, in another order:

IC50 (Leishmania major) [µM]	Molecule	IC50 [1] [µM]	SI2 (selective index, SI to A549) [1]	SI1 (selective index, SI to L. major) (Leishmania major)	IC50 (Vero cells) [µM]	cytotoxicity against L. major (L. major)
3.75 ± 0.98	C=C(C(=O)OC)[C@@H]1[C@@H](OC(=O)/C(C)=C/C)C[C@@]2(C)C(=O)CCC(C)=C2[C@H]1O [Compound 3, Crossostenin C]	5.59 ± 0.72			6.2 ± 1.36	
7.66 ± 2.26	C=C(C(=O)OC)[C@@H]1[C@@H](OC(=O)/C(C)=C\C)C[C@@]2(C)C(=O)CCC(C)=C2[C@H]1O [Compound 4, Crossostenin D]	17.1 ± 1.86			17.2 ± 1.36	
4.72 ± 1.26	CC(=O)OC1CC2(C)C(=O)CCC(C)=C2C2OC(=O)C(CN3CCCC3C(=O)O)C12 (stereo not drawn) [Compound 5, Crossoseamine C]	17.4 ± 1.86			11.4 ± 0.98	
52.6 ± 11.6	CC1=C2C3OC(=O)C(CN4CCCC4C(=O)O)C3CCC2(C)C(=O)CC1 (stereo not drawn) [Compound 6, Crossoseamine D]	83.9 ± 12.1			48.5 ± 4.07	
30.8 ± 5.81	CC1=C2C3OC(=O)C(CN4CCCC4C(=O)O)C3C(O)CC2(C)C(=O)CC1 (stereo not drawn) [Compound 7, Crossoseamine E]	58.9 ± 13.6			23.8 ± 2.47	
18.1 ± 1.69	CCCCCCCCCCCCCCCCOP(=O)([O-])OCC[N+](C)(C)C [miltefosine, reference compound]					

Reference: article PMC10746127, “New ψ-Santonin Derivatives from Crossostephium chinense and Their Anti-Proliferative Activities against Leishmania major and Human Cancer Cells A549” (Molecules, 2023)
